Reference: patent publication US12285446B2, “Compositions and methods for improving mitochondrial function” (priority 2018, dated 2025)

What was measured:
UbV-gfp = UbV-gfp reporter; set-up: species or system Caenorhabditis elegans; details: in vivo
Experimental: To address how Gluconacetobacter spp feeding improves mitochondrial function, a variety of transgenic worm strains were tested, including worms that carry a construct encoding a fusion protein comprising a GFP reporter protein and a gene product that is involved in stress response, mitochondrial activity, peroxisomal function, innate immune response, and different signaling pathways (Table 1; FIGS. 2C-2K; FIGS. 6C-6L; FIGS. 7A-7D).

[1] = test system: phsp-6::gfp induced by human Aβ1-42; test: phsp-6::gfp UPRmt reporter in worms with panneuronal human Aβ1-42; format: in vivo, Caenorhabditis elegans; details: compound treatment
Experimental: Thus, it is possible to screen for interventions that will reduce the UPRmt induction by modulating the Aβ aggregation or toxicity of Aβ on mitochondria.
For the screen, thirty microbial strains including the negative control bacteria E. coli OP50 were grown in appropriate culture media conditions and spotted onto standard nematode growth medium plates. ˜30 synchronized L1-larval-stage transgenic worm expressing Aβ 1-42 or tau in the pan-neurons were dropped onto the seeded plates and scored visually after 4 days under a fluorescent microscope for changes in phsp-6::gfp expression (FIG. 13).

With `CC(C)C[C@H](NC(=O)[C@H](Cc1ccccc1)NC(=O)c1cnccn1)B(O)O` [Bortezomib] the UbV-gfp expression (UbV-gfp) was “stabilizes UbV-gfp”.

For `Cc1ccc2c(c1)sc(-c1ccc(N(C)C)cc1)[n+]2C.[Cl-]` [Thioflavin T], the “induction of UPRmt (phsp-6::gfp) in Aβ worms treated with compound” value [1] was “induction of UPRmt was reduced”.
